Among the data in US20230151034A1 (COCRYSTAL PHARMA, INC., priority 2020, published 2023) are IC50 values, retold here.

One assay has as its target SARS2 protease (Severe acute respiratory syndrome coronavirus 2, UniProt P0DTD1). Put plainly: SARS-CoV-2 protease inhibition assay (SARS2 FRET protease assay). The format is biochemical. As to conditions: Table E; SARS-CoV-2 protease inhibition; read-out: IC50. The method, boiled down: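 SARS-CoV-2 protease (25 nM) was incubated for 30 min at 30 °C with 1.3 μM quenched 5-FAM/TAMRA peptide substrate and compound (3-fold dilutions, 20 μM–1.0 nM). The buffer was 20 mM HEPES-Na pH 7, 120 mM NaCl, 0.4 mM EDTA, 0.01% Triton, 5% glycerol and 4 mM DTT. Fluorescence was read at ex 473 and em 519 nm, and IC50 was derived.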

In assay [1] the target is Norwalk GGI.1 Norovirus protease (Norovirus, UniProt Q83883). Put plainly: Noro-Norwalk FRET protease assay (Norwalk GGI.1). The format is biochemical, Norwalk virus. Conditions: FRET protease assay, read-out: Norwalk GGI.1 IC50. In a few lines: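 Purified norovirus protease was mixed with inhibitor and FRET peptide substrate (Edans-DFHLQ/GP-Dabcyl, or 5-FAM/TAMRA peptide at 10 μM), and IC50 came from fluorescence. Norwalk assay: 1-7 μM protease, HEPES pH 8 with DTT, 90 min at 37° C, 200 μM–10.2 nM compound, ex 473/em 519 nm.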

In assay [2] the target is HuNV GGII.4 Norovirus protease (Norovirus GII.4 (human norovirus genogroup II genotype 4), UniProt P54634). Put plainly: Norovirus protease FRET assay (HuNV GGII.4). The format is biochemical. Conditions: FRET protease assay, read-out: HuNV GGII.4 IC50.

Like-named read-outs stand apart in the source and are kept apart here. Where only a bound is given, the exact number is not on record here.

Sequence of HuNV GGII.4 Norovirus protease (P54634 1009-1189): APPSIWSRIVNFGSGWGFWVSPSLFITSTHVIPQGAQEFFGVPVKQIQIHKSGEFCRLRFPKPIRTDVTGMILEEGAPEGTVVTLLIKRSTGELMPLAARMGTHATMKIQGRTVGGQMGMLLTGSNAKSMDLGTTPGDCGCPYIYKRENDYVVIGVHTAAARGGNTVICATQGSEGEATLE
Sequence of Norwalk GGI.1 Norovirus protease (Q83883 1101-1281): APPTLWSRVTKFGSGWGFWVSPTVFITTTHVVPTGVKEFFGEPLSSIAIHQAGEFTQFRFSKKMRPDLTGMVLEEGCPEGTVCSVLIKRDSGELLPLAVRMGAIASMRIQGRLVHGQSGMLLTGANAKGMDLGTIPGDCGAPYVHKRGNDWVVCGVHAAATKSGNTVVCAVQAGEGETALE

Regarding `O=C[C@H](CCC(=O)N1CCOC(c2ccccc2)C1)NC(=O)[C@H](CC1CCCCC1)NC(=O)OCc1cccc(Cl)c1` (stereo in doubt) [Compound A45, 3-Chlorobenzyl ((2S)-3-cyclohexyl-1-(((2S)-1,5-dioxo-5-(2-phenylmorpholino)pentan-2-yl)amino)-1-oxopropan-2-yl)carbamate], the IC50 at SARS2 protease was above 200 µM; in assay [1] (Table C), 11 µM; in assay [2] (Table C), 18.8 µM.
Take `CCOCCOCCN(C)C(=O)CC[C@H](NC(=O)C(CC1CCCCC1)NC(=O)OCc1cccc(Cl)c1)C(O)P(=O)(OCC)OCC` (stereo in doubt) [Compound A11, 3-Chlorobenzyl ((13S,16S)-17-cyclohexyl-13-((diethoxyphosphoryl)(hydroxy)methyl)-9-methyl-10,15-dioxo-3,6-dioxa-9,14-diazaheptadecan-16-yl)carbamate]: the IC50 on SARS2 protease was above 200 µM; in assay [1] (Table C) it was 133 µM; in assay [2] (Table C), 114 µM.
Taken in the same sequence, the figures for `CN(CCc1ccc(Cl)cc1)C(=O)CC[C@@H](C=O)NC(=O)[C@H](CC1CCCCC1)NC(=O)OCc1cccc(Cl)c1` (stereo in doubt) [Compound A48, 3-Chlorobenzyl ((S)-1-(((S)-5-((4-chlorophenethyl)(methyl)amino)-1,5-dioxopentan-2-yl)amino)-3-cyclohexyl-1-oxopropan-2-yl)carbamate] were 31 µM, 8.7 µM and 63 µM.
Consider `CON(C)C(=O)C1CC(C(=O)N(C)C)CCCCCC(Cc2ccccc2)OC(=O)N[C@@H](CC(C)C)C(=O)N1` (stereo in doubt) [Compound B43, (4S,7S)-15-benzyl-4-isobutyl-N7-methoxy-N7,N9,N9-trimethyl-2,5-dioxo-1-oxa-3,6-diazacyclopentadecane-7,9-dicarboxamide], for which the IC50 on SARS2 protease was above 200 µM; in assay [1] (Table D), 105 µM; in assay [2] (Table D) it was 105 µM.
For the compound `CCOC(=O)NCCN(C)C(=O)CC[C@@H](C=O)NC(=O)[C@H](CC1CCCCC1)NC(=O)OCc1cccc(Cl)c1` (stereo in doubt) [Compound A44, Ethyl ((5S,8S)-1-(3-chlorophenyl)-5-(cyclohexylmethyl)-8-formyl-12-methyl-3,6,11-trioxo-2-oxa-4,7,12-triazatetradecan-14-yl)carbamate], the IC50 was above 200 µM on SARS2 protease, 10.7 µM in assay [1] (Table C) and 28.6 µM in assay [2] (Table C).
Taken in the same sequence, the figures for `CN(CCc1cccc(Cl)c1)C(=O)CC[C@@H](C=O)NC(=O)[C@H](CC1CCCCC1)NC(=O)OCc1cccc(Cl)c1` (stereo in doubt) [Compound A33, 3-Chlorobenzyl ((S)-1-(((S)-5-((3-chlorophenethyl)(methyl)amino)-1,5-dioxopentan-2-yl)amino)-3-cyclohexyl-1-oxopropan-2-yl)carbamate] were above 200 µM, 117 µM and above 200 µM.
Taken in the same sequence, the figures for `CCNC(=O)OCCN(C)C(=O)CC[C@@H](C=O)NC(=O)[C@H](CC1CCCCC1)NC(=O)OCc1cccc(Cl)c1` (stereo in doubt) [Compound A46, 3-Chlorobenzyl ((12S, 15S)-16-cyclohexyl-12-formyl-8-methyl-4,9,14-trioxo-5-oxa-3,8,13-triazahexadecan-15-yl)carbamate] were above 200 µM, 8.6 µM and 28 µM.
Consider `CCOCCN(C)C(=O)CC[C@H](NC(=O)C(CC1CCCCC1)NC(=O)OCc1cccc(Cl)c1)C(O)P(=O)(OCC)OCC` (stereo in doubt) [Compound A12, 3-chlorobenzyl ((2S)-3-cyclohexyl-1-(((2S)-1-(diethoxyphosphoryl)-5-((2-ethoxyethyl)(methyl)amino)-1-hydroxy-5-oxopentan-2-yl)amino)-1-oxopropan-2-yl)carbamate], for which the IC50 at SARS2 protease is 5.4 µM; in assay [1] (Table C), 122 µM; in assay [2] (Table C), above 200 µM.

A word on the IC50: it is the concentration that inhibits the measured activity by half.
